According to ChEMBL document CHEMBL1201862, “PubChem BioAssay data set” (2004):
Active and inactive are the calls of the source.

How the values were obtained:
[1] = target: T1, Estrogen receptor (Homo sapiens, UniProt P03372);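 also: potency for inhibiting coactivator peptide recruitment to the receptor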
T1 sequence (P03372 whole entry): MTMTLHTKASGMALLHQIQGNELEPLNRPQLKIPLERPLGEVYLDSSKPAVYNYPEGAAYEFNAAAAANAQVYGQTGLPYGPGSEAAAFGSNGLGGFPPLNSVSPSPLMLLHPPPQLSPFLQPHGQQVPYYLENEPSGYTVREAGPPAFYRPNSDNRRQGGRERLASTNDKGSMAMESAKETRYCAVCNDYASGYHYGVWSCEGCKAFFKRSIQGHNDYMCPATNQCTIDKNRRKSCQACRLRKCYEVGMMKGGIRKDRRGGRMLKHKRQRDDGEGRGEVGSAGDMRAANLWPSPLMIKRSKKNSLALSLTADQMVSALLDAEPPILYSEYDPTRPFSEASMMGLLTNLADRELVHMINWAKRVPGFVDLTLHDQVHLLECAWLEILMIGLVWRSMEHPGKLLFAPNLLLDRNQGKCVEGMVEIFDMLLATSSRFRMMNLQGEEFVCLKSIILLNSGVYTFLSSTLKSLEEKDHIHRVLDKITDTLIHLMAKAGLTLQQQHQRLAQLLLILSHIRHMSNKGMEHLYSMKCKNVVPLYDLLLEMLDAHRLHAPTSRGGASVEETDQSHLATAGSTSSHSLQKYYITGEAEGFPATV

[2] = cytotoxicity in HEK-293T cells, dose response, cytotoxicity control for TCR NF-kB inhibitor project, luminescence, T-cell screen hits (AID 489026); type: functional, cell-based;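 also: cells exposed to compound about 14 hours before the viability readout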
[3] = target: T2, Coagulation factor XII (Homo sapiens, UniProt P00748); type: functional;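 also: activated factor XIIa alpha cleaving a fluorogenic AMC peptide substrate; inhibitor potency from loss of enzyme activity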
T2 sequence (P00748 whole entry): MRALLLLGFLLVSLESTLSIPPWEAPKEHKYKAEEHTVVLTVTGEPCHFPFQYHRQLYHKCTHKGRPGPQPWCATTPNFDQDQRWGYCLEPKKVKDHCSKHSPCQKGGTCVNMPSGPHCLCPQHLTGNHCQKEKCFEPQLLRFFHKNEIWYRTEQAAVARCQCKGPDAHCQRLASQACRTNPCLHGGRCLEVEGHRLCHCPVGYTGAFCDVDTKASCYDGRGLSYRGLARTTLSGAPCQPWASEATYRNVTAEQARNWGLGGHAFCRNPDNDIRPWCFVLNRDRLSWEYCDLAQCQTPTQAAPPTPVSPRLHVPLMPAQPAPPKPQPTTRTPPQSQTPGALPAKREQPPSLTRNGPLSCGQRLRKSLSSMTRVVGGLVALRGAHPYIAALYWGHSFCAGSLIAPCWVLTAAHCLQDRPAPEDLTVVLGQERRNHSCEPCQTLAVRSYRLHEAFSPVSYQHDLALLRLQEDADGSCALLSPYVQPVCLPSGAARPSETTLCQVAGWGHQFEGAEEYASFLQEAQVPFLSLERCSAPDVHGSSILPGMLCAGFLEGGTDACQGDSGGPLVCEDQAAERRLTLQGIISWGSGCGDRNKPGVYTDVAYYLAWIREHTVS

[4] = tested on: BJ; experiment: cytotoxicity toward BJ-TERT fibroblasts, dose response, cell-based, RAS-independent, luminescence (AID 1933); type: functional; settings: Homo sapiens
[5] = tested on: BJ; experiment: cytotoxicity toward BJ-TERT-LT-ST fibroblasts, dose response, cell-based, RAS-independent, luminescence (AID 1935); type: functional; settings: Homo sapiens;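 also: BJ fibroblasts immortalized with TERT plus LT and ST oncogenes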
[6] = tested on: BJ; experiment: cells; type: functional, cell-based; settings: Homo sapiens
[7] = cytotoxicity toward DRD oncogenic fibroblasts, dose response, cell-based, non-viral oncogenic, luminescence (AID 1934); type: functional; settings: Homo sapiens
[8] = target: T3, Streptokinase A (Streptococcus pyogenes serotype M1, UniProt P10520); experiment: S. pyogenes streptokinase expression inhibitors, potency, dose response, plasminogen activation absorbance, OD405 (AID 1914); type: functional, Streptococcus pyogenes M1 GAS;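 also: secreted streptokinase activity via plasminogen activation per viability signal from cell pellet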
T3 sequence (P10520 whole entry): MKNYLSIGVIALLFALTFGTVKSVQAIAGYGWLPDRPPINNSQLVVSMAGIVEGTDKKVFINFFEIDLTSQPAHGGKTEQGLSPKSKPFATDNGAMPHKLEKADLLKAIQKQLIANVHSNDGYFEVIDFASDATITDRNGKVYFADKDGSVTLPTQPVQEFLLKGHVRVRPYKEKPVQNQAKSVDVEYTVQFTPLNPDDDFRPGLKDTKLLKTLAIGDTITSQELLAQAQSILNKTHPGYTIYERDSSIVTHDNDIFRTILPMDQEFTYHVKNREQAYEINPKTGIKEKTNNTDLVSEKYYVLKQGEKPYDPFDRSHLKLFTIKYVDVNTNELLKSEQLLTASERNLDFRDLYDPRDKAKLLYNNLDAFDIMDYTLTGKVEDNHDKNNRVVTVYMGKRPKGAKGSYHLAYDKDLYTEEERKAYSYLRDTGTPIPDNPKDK

[9] = tested on: Streptococcus; experiment: Group A Streptococcus viability loss, dose response, counter-screen for streptokinase expression inhibitor project, luminescence, BacTiterGlo (AID 1915); type: functional, organism-based;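 also: potency for reduction of bacterial viability or growth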
[10] = A Cell Based Secondary Assay To Explore Cytotoxicity of Compounds that Sensitize Mycobacterium Tuberculosis to Beta-Lactam Antibiotics.; type: functional
[11] = tested on: Streptococcus sp. 'group A'; experiment: growth inhibition of control SK(-) GAS strain, dose response, counter-screen for streptokinase expression inhibitor project, luminescence, kanamycin, BacTiterGlo, confirmation (AID 1900); type: functional, organism-based
[12] = target: T4, Short transient receptor potential channel 4 (Mus musculus, UniProt Q9QUQ5); experiment: mouse TRPC4 channel activators, dose response, cell-based, HEK293 TRPC4/mu-opioid, Fluo-4 calcium (AID 434937); type: functional
T4 sequence (Q9QUQ5 whole entry): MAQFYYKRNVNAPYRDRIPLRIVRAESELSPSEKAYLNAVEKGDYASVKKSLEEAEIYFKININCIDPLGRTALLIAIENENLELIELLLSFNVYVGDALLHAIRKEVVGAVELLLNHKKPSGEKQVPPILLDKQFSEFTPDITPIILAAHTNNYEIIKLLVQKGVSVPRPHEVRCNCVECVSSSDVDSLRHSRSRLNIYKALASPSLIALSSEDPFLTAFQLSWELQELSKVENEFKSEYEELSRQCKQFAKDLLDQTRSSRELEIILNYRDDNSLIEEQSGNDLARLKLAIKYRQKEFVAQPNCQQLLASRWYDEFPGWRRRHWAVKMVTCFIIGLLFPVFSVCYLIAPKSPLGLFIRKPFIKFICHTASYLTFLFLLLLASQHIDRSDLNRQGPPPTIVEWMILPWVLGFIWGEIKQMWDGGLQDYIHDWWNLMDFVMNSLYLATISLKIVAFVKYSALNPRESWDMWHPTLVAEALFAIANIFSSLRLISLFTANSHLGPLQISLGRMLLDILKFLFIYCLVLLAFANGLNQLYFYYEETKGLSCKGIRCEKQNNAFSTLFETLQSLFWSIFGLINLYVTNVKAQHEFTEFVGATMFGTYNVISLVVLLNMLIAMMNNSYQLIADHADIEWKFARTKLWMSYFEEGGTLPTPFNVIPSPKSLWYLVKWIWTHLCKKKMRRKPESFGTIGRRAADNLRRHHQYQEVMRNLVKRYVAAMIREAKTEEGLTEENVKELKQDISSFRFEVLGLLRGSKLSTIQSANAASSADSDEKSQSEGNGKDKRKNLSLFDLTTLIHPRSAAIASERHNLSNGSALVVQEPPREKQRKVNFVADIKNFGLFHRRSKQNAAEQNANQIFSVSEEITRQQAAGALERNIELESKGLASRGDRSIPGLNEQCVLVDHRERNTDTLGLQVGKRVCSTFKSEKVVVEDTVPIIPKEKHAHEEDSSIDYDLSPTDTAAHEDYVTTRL

[13] = target: Induced myeloid leukemia cell differentiation protein Mcl-1 (Homo sapiens, UniProt Q07820); type: functional
[14] = target: T5, Ubiquitin-conjugating enzyme E2 N (Homo sapiens, UniProt P61088); type: functional;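 also: Dose-response confirmation in a TR-FRET assay detecting UBC13-driven polyubiquitin chain formation, inhibition measured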
T5 sequence (P61088 whole entry): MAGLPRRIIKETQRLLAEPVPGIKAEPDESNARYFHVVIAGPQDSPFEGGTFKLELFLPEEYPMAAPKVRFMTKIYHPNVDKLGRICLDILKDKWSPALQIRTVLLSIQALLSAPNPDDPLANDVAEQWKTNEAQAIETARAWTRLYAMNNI

[15] = target: Estrogen receptor beta (Homo sapiens, UniProt Q92731);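 also: recombinant ER-beta bound to coactivator SRC1 peptide in presence of estradiol agonist; inhibitors block coactivator peptide binding and lower the FRET signal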
[16] = tested on: INS1; experiment: beta cell apoptosis inhibitors, cytokine rescue, dose response, luminescence, retest (AID 449756); type: functional, cell-based; settings: Rattus norvegicus;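 also: cell death triggered by IL-1 beta plus TNF-alpha plus IFN-gamma mixture; protective hits raise ATP signal compared with cytokine alone wells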
[17] = target: T6, Mannose-6-phosphate isomerase (Homo sapiens, UniProt P34949); experiment: human PMI inhibitors, high substrate, primary screen, biochemical, fluorescence intensity, high mannose 6-phosphate (AID 1220)
T6 sequence (P34949 whole entry): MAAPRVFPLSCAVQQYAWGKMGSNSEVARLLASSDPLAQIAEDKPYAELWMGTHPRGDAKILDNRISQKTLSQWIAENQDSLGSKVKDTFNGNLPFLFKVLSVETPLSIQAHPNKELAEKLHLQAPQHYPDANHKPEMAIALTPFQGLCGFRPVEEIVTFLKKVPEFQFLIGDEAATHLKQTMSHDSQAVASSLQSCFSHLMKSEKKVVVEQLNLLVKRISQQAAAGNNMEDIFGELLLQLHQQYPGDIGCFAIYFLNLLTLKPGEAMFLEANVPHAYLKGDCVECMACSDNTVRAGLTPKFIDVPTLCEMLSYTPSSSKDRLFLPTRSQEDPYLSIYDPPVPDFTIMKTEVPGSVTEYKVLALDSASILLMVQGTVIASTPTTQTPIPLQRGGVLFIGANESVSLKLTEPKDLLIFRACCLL

[18] = target: Cytochrome P450 2C19 (Homo sapiens, UniProt P33261); experiment: Cytochrome panel assay with activity outcomes. Panel member name: p450-cyp2c19 Compounds with AC50 equal or less than 10 uM are considered active; type: functional; settings: read-out: AC50
[19] = Luminescence Cell-Based Dose Response HTS to Identify Activators of Luciferase Translation or Activity in H4 […] Cells. [Related pubchem assays: 1829 (Project Summary), 1814 (Primary HTS)]; type: functional
[20] = tested on: H4; experiment: Luminescence Cell-Based Dose Response HTS to Identify Activators of 5'UTR Stem-Loop Driven Prion Protein mRNA Translation in H4 Neuroglioblastoma Cells. [Related pubchem assays: 1829 (Project Summary), 1814 (Primary HTS)]; type: functional; settings: Homo sapiens
[21] = Luminescence Cell-Based Dose Confirmation HTS to Identify Activators of 5'UTR Stem-Loop Driven Alpha-Synuclein mRNA Translation in H4 Neuroglioblastoma Cells. [Related pubchem assays: 1829 (Project Summary), 1814 (Primary HTS)]; type: functional
[22] = microbe, parasite or virus in culture; type: functional; settings: Mycobacterium tuberculosis
[23] = Luminescence Cell-Based Dose Retest to Confirm Inhibitors of Cancer Stem Cells. [Related pubchem assays (depositor defined):AID2717, AID2721]; type: functional; settings: Homo sapiens

Chain of Induced myeloid leukemia cell differentiation protein Mcl-1 (Q07820 whole entry): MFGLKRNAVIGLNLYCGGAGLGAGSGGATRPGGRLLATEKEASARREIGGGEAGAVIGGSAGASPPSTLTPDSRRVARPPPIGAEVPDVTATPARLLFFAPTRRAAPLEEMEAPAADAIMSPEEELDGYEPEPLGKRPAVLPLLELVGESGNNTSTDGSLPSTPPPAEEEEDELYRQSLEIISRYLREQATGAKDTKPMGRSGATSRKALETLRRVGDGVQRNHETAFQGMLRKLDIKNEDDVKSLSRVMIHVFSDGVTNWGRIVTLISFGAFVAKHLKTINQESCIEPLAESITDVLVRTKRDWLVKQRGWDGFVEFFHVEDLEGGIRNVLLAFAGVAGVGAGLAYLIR
Chain of Cytochrome P450 2C19 (P33261 whole entry): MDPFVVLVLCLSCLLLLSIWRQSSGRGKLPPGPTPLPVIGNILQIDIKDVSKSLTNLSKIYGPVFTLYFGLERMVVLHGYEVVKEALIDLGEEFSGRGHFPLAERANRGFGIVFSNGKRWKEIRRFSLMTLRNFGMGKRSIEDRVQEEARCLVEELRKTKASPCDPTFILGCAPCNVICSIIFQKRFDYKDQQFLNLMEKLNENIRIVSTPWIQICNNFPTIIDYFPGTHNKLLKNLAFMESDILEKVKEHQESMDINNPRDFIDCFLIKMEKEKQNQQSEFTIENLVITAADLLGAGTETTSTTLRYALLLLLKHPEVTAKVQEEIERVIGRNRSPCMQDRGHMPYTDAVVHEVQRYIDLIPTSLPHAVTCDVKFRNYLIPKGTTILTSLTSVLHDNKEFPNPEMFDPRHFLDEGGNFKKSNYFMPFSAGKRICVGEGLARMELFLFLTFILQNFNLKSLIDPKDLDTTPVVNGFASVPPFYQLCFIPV
Chain of Estrogen receptor beta (Q92731 whole entry): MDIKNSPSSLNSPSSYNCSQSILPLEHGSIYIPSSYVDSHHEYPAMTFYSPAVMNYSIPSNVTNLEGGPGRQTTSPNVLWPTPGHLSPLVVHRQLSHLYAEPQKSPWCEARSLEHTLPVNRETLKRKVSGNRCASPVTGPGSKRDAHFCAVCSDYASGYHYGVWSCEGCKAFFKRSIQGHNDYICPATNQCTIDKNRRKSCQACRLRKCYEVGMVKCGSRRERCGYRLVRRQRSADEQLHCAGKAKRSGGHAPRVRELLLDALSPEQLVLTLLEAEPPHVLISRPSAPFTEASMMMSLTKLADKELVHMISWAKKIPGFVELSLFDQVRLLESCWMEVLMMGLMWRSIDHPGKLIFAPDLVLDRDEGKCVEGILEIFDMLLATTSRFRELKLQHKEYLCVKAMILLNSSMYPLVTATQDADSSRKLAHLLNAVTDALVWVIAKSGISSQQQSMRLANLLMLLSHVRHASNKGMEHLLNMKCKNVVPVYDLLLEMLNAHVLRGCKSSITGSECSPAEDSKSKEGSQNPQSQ

Cc1ccc(-c2nnc(S)n2/N=C/C=C\c2ccccc2[N+](=O)[O-])cc1
IC50 [1]: 7.32 µM (active)

CSC1=NC(c2ccc(C)cc2)=NC(C(Cl)(Cl)Cl)N1 (configuration not stated)
IC50 [2]: > 80 µM (inactive)

COC(=O)C(C)NC(=O)C1CCCN1S(=O)(=O)c1cc(C)c(Cl)cc1C (configuration not stated)
IC50 [3]: > 50 µM (inactive)

O=C(c1ccccc1-c1ccccc1)N1CCN(c2ccccn2)CC1
EC50 [4]: 9.85 µM (active)
EC50 [5]: 13.9 µM (inconclusive)
EC50 [6]: 19.9 µM (active)
IC50 [2]: > 80 µM (inactive)
EC50 [7]: 11.4 µM (active)

CCc1cccc2c(C(=O)COC(=O)/C=C/c3ccc(O)c(OC)c3)c[nH]c12
EC50 [8]: > 150 µM (not active)
EC50 [9]: 41.1 µM (active)
CC50 [10]: > 40 µM (active)
EC50 [11]: 8.62 µM (active)

CCOC(=O)C1(Cc2cccc(F)c2)CCN(Cc2cnn(CC)c2C)CC1
EC50 [12]: 0.211 µM (active)

Brc1c(C[n+]2ccccc2)nc2ccccn12
IC50 [3]: > 50 µM (inactive)

c1ccc(CNC2=NN=C(c3cc4ccccc4o3)CS2)cc1
IC50 [13]: 2.66 µM (not active)

Cc1ccc(C)c(NC(=O)CN(C)C(=O)CCN2C(=O)c3ccccc3C2=O)c1
IC50 [3]: > 50 µM (inactive)

COc1cc(OC)cc(-c2nnc(NC(=O)CCS(=O)(=O)c3ccc(C)cc3)o2)c1
CC50 [10]: 32.4 µM (active)

CCOc1cc(NC(=O)c2ccc(C)cc2)c(OCC)cc1N=C(S)NCCCN1CCOCC1
IC50 [3]: > 50 µM (inactive)

Cc1cc(C)cc(OCc2nc3cc(Br)c[nH]c-3n2)c1
IC50 [1]: > 50 µM (not active)

Cn1cc(C(=O)N/N=C/c2ccc([N+](=O)[O-])cc2)c2ccccc21
IC50 [13]: 1.94 µM (active)

CN(C)CC(=O)N1c2ccccc2CCc2ccc(NC(=O)c3ccc(N)cc3)cc21
IC50 [1]: 15.6 µM (active)

COc1ccc(C(CNC(=O)COc2ccccc2OC)N(C)C)cc1OC (configuration not stated)
EC50 [12]: 1.19 µM (active)

Cc1c(Cl)cccc1Nc1nc(N)nc(CN2CCc3ccccc3C2)n1
IC50 [3]: > 50 µM (inactive)

Cc1cc(C)cc(OCC(=O)NNC(=O)c2ccccn2)c1
CC50 [10]: 11.4 µM (active)
IC50 [14]: > 20 µM (inactive)

N#CCCS(=O)(=O)c1nnnn1-c1ccccc1
IC50 [1]: > 50 µM (not active)
IC50 [15]: > 50 µM (not active)

CCc1nnc(NC(=O)C2Cc3ccccc3CN2S(=O)(=O)c2cccs2)s1 (configuration not stated)
IC50 [1]: > 50 µM (not active)

Fc1ccc(-n2cc(CNCCc3cccnc3)c(-c3ccccc3Cl)n2)cc1
EC50 [12]: 5.96 µM (active)

CCOc1ccc(S(=O)(=O)N(C(=O)c2ccco2)c2cc3sc(=O)oc3c3ccccc23)cc1
AC50 [16]: 4.42 µM (active)
CC50 [10]: 31.6 µM (active)

COc1ccc(CCN(C)CCC(=O)Nc2c(C)cc(C)cc2C)cc1OC
EC50 [12]: 4.73 µM (active)

CCOC(=O)c1c(C)oc2c1c(/C=N/C1CCS(=O)(=O)C1)c(O)c1ccccc12 (configuration not stated)
IC50 [1]: 16 µM (active)
IC50 [17]: > 50 µM (not active)
AC50 [18]: 1.78 µM (inconclusive)

O=C(c1ccccc1)c1nn(-c2ccc(Cl)cc2)c(=O)cc1C(F)(F)F
EC50 [19]: > 120 µM (not active)
EC50 [20]: > 120 µM (not active)
EC50 [21]: 0.222 µM (active)
CC50 [22]: 15.7 µM (active)
AC50 [23]: 4.21 µM (active)
IC50 [2]: > 80 µM (inactive)

O=C(C1=C[C@H](c2ccc(Br)cc2)C[C@H](OCc2ccc(CO)cc2)O1)N1CCN(Cc2ccc3c(c2)OCO3)CC1
CC50 [10]: 32 µM (active)
